This is an account of results in ChEMBL document CHEMBL3872234, “Polyfluorinated salicylic acid derivatives as analogs of known drugs: Synthesis, molecular docking and biological evaluation” (Bioorg Med Chem, 2017).

Several values for one entry are separate records, joined by “and”; a condition that tells them apart may be missing. Equal entries are not always repeated.

Data set [1] is described as follows: Permeability of the compound at pH 5 after 2 hrs by PAMPA. Type of data set: ADME. The conditions noted are these: read-out: Peff. For orientation: The PAMPA barrier holds no transporters, so it reflects passive diffusion.
The nature of data set [2]: Permeability of the compound at pH 6.2 after 2 hrs by PAMPA. The conditions noted are these: read-out: Peff. In kind it is ADME.
Data set [3] in a line: Permeability of the compound at pH 7.4 after 2 hrs by PAMPA. In kind it is ADME. The conditions noted are these: read-out: Peff.
Data set [4] concerns Rattus norvegicus. Nature of the data set: Antiinflammatory activity in rat carrageenan-induced paw edema model assessed as inhibition of paw swelling at 25 mg/kg, ip administered 30 mins prior to carrageenan challenge measured after 3 hrs. Type of data set: functional. In general terms: Carrageenan injected into the paw causes an acute inflammation.
Data set [5] has as its system Rattus norvegicus. Nature of the data set: Antiinflammatory activity in rat carrageenan-induced paw edema model assessed as inhibition of paw swelling at 25 mg/kg, ip administered 30 mins prior to carrageenan challenge measured after 5 hrs. Type of data set: functional.
Data set [6] concerns Rattus norvegicus. Nature of the data set: Analgesic activity in rat assessed as latent period prolongation at 25 mg/kg, ip measured after 1 hr by hot plate test. In kind it is functional.
A short description of data set [7]: Acute toxicity in CD-1 mouse assessed as viability at 300 mg/kg, ip measured up to 14 days. Type of data set: organism-based. Particulars: in vivo.
The nature of data set [8]: Acute toxicity in CD-1 mouse assessed as viability at 50 mg/kg, ip measured up to 14 days. Type of data set: organism-based. Particulars: in vivo, read-out: Activity.
For data set [9], the target named is T1, Prostaglandin G/H synthase 1 (Ovis aries) (UniProt P05979).
T1 sequence (whole entry): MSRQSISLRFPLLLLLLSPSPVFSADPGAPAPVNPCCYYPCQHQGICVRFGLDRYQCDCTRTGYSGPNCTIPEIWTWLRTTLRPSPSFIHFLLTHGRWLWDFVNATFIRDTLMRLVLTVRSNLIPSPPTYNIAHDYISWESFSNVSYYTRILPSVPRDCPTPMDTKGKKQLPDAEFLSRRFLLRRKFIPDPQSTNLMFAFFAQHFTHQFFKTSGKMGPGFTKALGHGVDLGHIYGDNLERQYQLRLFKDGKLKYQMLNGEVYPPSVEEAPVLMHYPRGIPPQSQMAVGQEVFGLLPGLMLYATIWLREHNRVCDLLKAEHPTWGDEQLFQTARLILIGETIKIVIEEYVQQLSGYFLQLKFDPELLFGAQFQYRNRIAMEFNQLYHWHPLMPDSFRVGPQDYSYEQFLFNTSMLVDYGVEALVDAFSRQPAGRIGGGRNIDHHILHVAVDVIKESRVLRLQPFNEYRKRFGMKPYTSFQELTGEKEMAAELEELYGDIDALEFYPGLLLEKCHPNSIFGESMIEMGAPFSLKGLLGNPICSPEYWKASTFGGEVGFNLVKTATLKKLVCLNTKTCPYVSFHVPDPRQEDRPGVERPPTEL
Nature of the data set: Inhibition of ovine COX-1 assessed as reduction in PGG2 production using ADHP as substrate at 2 uM incubated for 5 mins followed by substrate addition measured after 2 mins by fluorescence assay.

Data set [10] has as its system Rattus norvegicus. Description: Antiinflammatory activity in rat carrageenan-induced paw edema model assessed as inhibition of paw swelling at 50 mg/kg, ip administered 30 mins prior to carrageenan challenge measured after 3 hrs. In kind it is functional.
The subject of data set [11] is Rattus norvegicus. Nature of the data set: Antiinflammatory activity in rat carrageenan-induced paw edema model assessed as inhibition of paw swelling at 50 mg/kg, ip administered 30 mins prior to carrageenan challenge measured after 5 hrs. In kind it is functional.
A short description of data set [12]: Acute toxicity in CD-1 mouse assessed as viability at 150 mg/kg, ip measured up to 14 days. The conditions noted are these: in vivo. In kind it is organism-based.
Data set [13] addresses T1, Prostaglandin G/H synthase 1 (Ovis aries). Description: Inhibition of ovine COX-1 assessed as reduction in PGG2 production using ADHP as substrate at 200 uM incubated for 5 mins followed by substrate addition measured after 2 mins by fluorescence assay.
The nature of data set [14]: Acute toxicity in CD-1 mouse assessed as viability at 100 mg/kg, ip measured up to 14 days. In kind it is organism-based. The conditions noted are these: in vivo.
The nature of data set [15]: Drug level in prisma HT buffer treated with 2-acetoxy-3,4,5-trifluorobenzoic acid at pH 5 to 7.4 by UV absorbance assay. Type of data set: toxicity.
The nature of data set [16]: Acute toxicity in CD-1 mouse assessed as viability at 75 mg/kg, ip measured up to 14 days. In kind it is organism-based. Particulars: in vivo, read-out: Activity.
A short description of data set [17]: Drug level in prisma HT buffer treated with 2-acetoxy-3,4,5,6-tetrafluorobenzoic acid at pH 5 to 7.4 by UV absorbance assay. In kind it is toxicity.

As for `O=C([O-])c1c(O)c(F)c(F)c(F)c1F.[Na+]`, the Papp at 2 h was 22.1 ×10⁻⁶ cm/s in data set [1], 1.8 ×10⁻⁶ cm/s in [2] and 0.1 ×10⁻⁶ cm/s in [3].

The inhibition in vivo is the drop in the measured response relative to a control, in per cent. Regarding `O=C(O)Cc1ccccc1Nc1c(Cl)cccc1Cl` [DICLOFENAC], the inhibition in vivo at 25 mg/kg in [4] was 64.4%; in data set [5], 54.4%. Moreover, in data set [6], the Activity is listed as 56 - 102.3%.

As to `CC(=O)Oc1c(C(=O)O)ccc(F)c1F`, in data set [5], the inhibition in vivo at 25 mg/kg turned out to be 35.3%. Besides, the Activity in data set [6] was found to be 98.8%. Also, in data set [7] (read-out: Activity), the survival at 336 h was found to be 33%.

By inhibition is commonly meant the relative decrease from the control value, in per cent. On to `COc1c(C(=O)O)cc(F)c(F)c1F`, for which the results for the survival at 336 h in data set [8], in data set [12] (read-out: Activity) and in data set [7] (read-out: Activity) were 100%, 80% and 0%, respectively. In data set [9], the inhibition is below 10%. Moreover, the inhibition in vivo at 50 mg/kg worked out at 40% in data set [10] and 30% in [11]. The Activity in [6] came out at 73.2%.

As for `CC(=O)Oc1c(C(=O)O)cc(F)c(F)c1F`, the survival at 336 h in [8] is 100%; in data set [12] (read-out: Activity) it was 70%; in data set [7] (read-out: Activity), 0%. Also, the inhibition in [9] was determined as 35%; in data set [13] it was 18%. Further, the Activity in [6] amounted to 71.2%.

`CC(=O)Oc1ccccc1C(=O)O` [ASPIRIN]: the figures for the Papp at 2 h in data set [1] and in [3] were 5.1 ×10⁻⁶ cm/s and 4.7 ×10⁻⁶ cm/s, respectively. Also, the inhibition is 31% in [9] and 36% in [13]. Further, the inhibition in vivo at 25 mg/kg was 30.6 to 56.2% in data set [4] and 29.4 to 44.9% in [5]. Also, the Activity in data set [6] is reported as 57.9%. Besides, the survival at 336 h worked out at 100% in data set [12], 33% in data set [7] and 100% in data set [14].

As for `O=C(O)c1ccc(F)c(F)c1O`, the survival at 336 h in data set [12] (read-out: Activity) came out at 66%; in data set [7] (read-out: Activity) it was 33%; in data set [14] (read-out: Activity), 66%.

For the molecule `O=C(O)c1cc(F)c(F)c(F)c1O`, the inhibition in vivo at 50 mg/kg in data set [10] stood at 46.7%; in [11] it was 46.9%. Further, in [6], the Activity was found to be 178.1%. In addition, the survival at 336 h in data set [7] (read-out: Activity) amounted to 0%. Further, in data set [15], the Drug metabolism entry is “Metabolite_Notdetected”.

`O=C(O)c1c(O)c(F)cc(F)c1F`: the results for the inhibition in vivo at 25 mg/kg in data set [4] and in [5] were 47% and 41.7%, respectively. The Activity in data set [6] turned out to be 60.3%. Besides, the survival at 336 h in data set [12] (read-out: Activity) stood at 66%.

As to `CC(=O)Oc1cc(F)c(F)cc1C(=O)O`, the survival at 336 h in data set [12] (read-out: Activity) was 100%.

For `O=C(O)c1cc(F)c(F)cc1O`, the Activity in [6] is listed as 60.6%. The values for the survival at 336 h in [12] (read-out: Activity), in [7] (read-out: Activity) and in data set [14] (read-out: Activity) were 66%, 33% and 100%, respectively.

In the case of `COC(=O)c1cc(F)c(F)c(F)c1O`, the inhibition in vivo at 50 mg/kg in [10] is 40.3%. Also, the survival at 336 h in data set [12] (read-out: Activity) is 100%; in [7] (read-out: Activity), 0%; in data set [14] (read-out: Activity) it was 100%.

As to `O=C(O)c1c(O)c(F)c(F)c(F)c1F` [listing 1 of 2 here], the Papp at 2 h in [1] was 18.6 ×10⁻⁶ cm/s; in data set [2], 0.5 ×10⁻⁶ cm/s; in data set [3] it was 0.1 ×10⁻⁶ cm/s. Further, the inhibition in vivo at 50 mg/kg was 64% in data set [10] and 56.5% in [11]. Also, the inhibition in vivo at 25 mg/kg in data set [5] was 33.1%. The Activity in data set [6] came out at 143.2%. The results for the survival at 336 h in [7] (read-out: Activity) and in data set [16] were 0% and 66%, respectively. The Drug metabolism entry in data set [17] was “Metabolite_Notdetected”.

With `CC(=O)Oc1c(F)cc(F)c(F)c1C(=O)O`, the inhibition in vivo at 25 mg/kg turned out to be 37.3% in [4] and 32.7% in data set [5]. The Activity in data set [6] stood at 86.5%.

As for `CC(=O)Oc1c(F)c(F)c(F)c(F)c1C(=O)O`, the survival at 336 h was determined as 100% in data set [8], 80% in data set [12] (read-out: Activity) and 0% in data set [7] (read-out: Activity). Further, the inhibition in vivo at 25 mg/kg in data set [4] was found to be 42.9%; in data set [5] it was 56.8%. Moreover, the figures for the inhibition in vivo at 50 mg/kg in [10] and in data set [11] were 65.6% and 45.1%, respectively. For the same molecule, in data set [6], the Activity was determined as 83.2%.

Take `O=C([O-])c1cc(F)c(F)c(F)c1O.[Na+]`: the Activity in data set [6] stood at 66.8%. Besides, in data set [12] (read-out: Activity), the survival at 336 h was determined as 66%.

Regarding `COc1c(F)c(F)c(F)c(F)c1C(=O)O`, the inhibition in data set [9] turned out to be 48%; in [13] it was 64%. The inhibition in vivo at 25 mg/kg in [4] is 53.8%; in data set [5], 46.9%. Further, the Activity in data set [6] stood at 100.8%.

Regarding `COC(=O)c1c(O)c(F)c(F)c(F)c1F`, the survival at 336 h in data set [8] amounted to 100%; in [12] (read-out: Activity), 90%; in data set [7] (read-out: Activity) it was 0%. The values for the inhibition in [9] and in data set [13] were 47% and 48%, respectively.

`O=C(O)c1c(O)c(F)c(F)c(F)c1F` [listing 2 of 2 here]: the inhibition is 34% and 59% in [9]; 39% and 31% in data set [13].
